The text below walks through data of patent US10422791B2, “Haptens and conjugates derived from pyocyanin, antibodies thereof, and immunochemical method for detecting infections caused by Pseudomonas aeruginosa” (priority 2013, dated 2019).

In one data set the test system is As230 antiserum. Kind of data set: Cross-reactivity determinations in the indirect competitive ELISA As230/PC1-BSA (AE). The format is binding, New Zealand white rabbits. As to conditions: for % RC (cross-reactivity): (IC50 1-hydroxyphenazine/IC50 phenazine compound)x100; for IC50: calibration curves in PBST, coating antigen PC1-BSA (AE), antiserum As230. As to the method:
The MALDI-TOF-MS mass spectrometer (mass spectrometer with laser assisted by ionization/desorption matrix with flight time) which it uses to characterize the conjugates of protein was a Bruker 200-Hz SmartBeam (Bruker-Daltonics, Leipzig, Germany). The detection was performed in the positive ion mode, ionized with a laser power set at 70% of the maximum laser intensity of the instrument at a frequency of 10-100 Hz. The pH and the conductivity of all the buffers and solutions was measured with a 540 GLP phMeter and a LF 340 conductivity meter, respectively (WTW, Weilheim, Germany). The polystyrene microtiter plates were from Nunc (Maxisorp, Roskilde, Denmark). The washing steps were carried out using a microplate washer (ELx405 HT (BioTek, Vinooski, Vt., USA)). The absorbencies were read in a SpectramaxPlus (Molecular Devices, Sunnyvale, Calif.) in a wavelength mode of 450 nm. The competition curves were analysed with a four-parameter equation using the SoftmaxPro v4.7 (Molecular Devices) and GraphPad Prism v 4 (GraphPad Software Inc, San Diego, Calif.) software. The standard curve was adjusted to a logistical equation of four parameters according to the formula y=(A−B/[1−(x/C)D])+B, where A is the maximum absorbance, B is the minimum absorbance, C is the concentration which produces 50% of the difference between the maximum and minimum absorbance (or IC50), and D is the gradient in the point of inflection of the sigmoidal curve. Unless indicated otherwise, the data shown correspond to the mean of at least two replicates.
The polyclonal antiserums As230, As231 and As232 were obtained by the immunization of New Zealand white rabbits (female) with weights around 1-2 kg with PC1-HCH (MA) following a protocol already described by Ballesteros et al. (Analytica Chimica Acta 1997, 347, 139). The evolution of the titers of antibodies was assessed by measuring the binding of serial solutions of each antiserum to microtiter plates coated with the homologous BSA conjugate. Once acceptable titers of antibodies are obtained, the animals were exsanguinated and the blood was collected in Vacutainer tubes provided with serum separation gel. The antiserums were obtained by centrifugation and were stored at −80° C. in the presence of 0.02% NaN3.
The microtiter plates were coated with PC1-BSA (AE) (0.125 μg/ml with coating buffer 100 μL/well) during 4 h at 25° C. with adhesive sealants. Then, the plates were washed four times with PBST (300 μL/well) before adding the standards (1-hydroxyphenazine or another type of related analytes, at different concentrations from 1000 nM to 0 nM in PBhST), and the samples at different concentrations (50 μl/well), followed by the As230 antiserum solution (1/8000 dilution in PBhST, 50 μl/well). After 30 min at ambient temperature, the plates were washed a further nine times with PBST and the anti-IgG-HRP solution was added (1/6000 in PBST, 100 μl/well). After 30 min of incubation at ambient temperature, the microplates were again washed four times with PBST and the substrate solution was added (100 μl/well) and the enzyme reaction was stopped after 30 min at ambient temperature by H2SO4 4 N (50 μl/well). The absorbencies were measured at 450 nm. The standard curve was adjusted to a logistical equation of four parameters according to the formula y=(A−B/[1−(x/C) D])+B, where A is the maximum absorbance, B is the minimum absorbance, C is the concentration that produces 50% of the difference between the maximum absorbance and minimum absorbance of the absorbance (or IC50), and D is gradient in the point of inflection of the sigmoidal curve. The limit of detection (LOD) is defined as the concentration which gives 90% response of the maximum absorbance (IC90) (see FIG. 1 and table 1).
Stock solutions were prepared of different compounds structurally related with pyocyanin and 1-hydroxyphenazine (10 mM in dimethyl sulfoxide) and they were stored at 4° C. […]
(ELISA stands for enzyme-linked immunosorbent assay.)

A short description of data set [1]: Conversion of pyocyanin into 1-hydroxyphenazine by NaOH, controlled by HPLC-UV. The format is physicochemical. The note with it: 1 M NaOH, 20 min at a.t., phenazine as internal standard. As to the method: A 2M NaOH solution (250 μL) was added to a vial containing pyocyanin (10 mM, 25 μL) in 10 mM PBS (85 μL), previously spiked with phenazine (500 μM, 140 μL). The progress of the reaction was monitored by extracting aliquots (10 μL) from the reaction solution at various time intervals, diluting them with 250 mM PBS (90 μL) and adding 1 M HCl (10 μL) to neutralize the pH.
Therefore, it was necessary to develop a simple method to convert pyocyanin in 1-hydroxyphenazine with a good yield. This could be achieved by treating pyocyanin solutions with 1 M NaOH during 20 min at a.t. […] As shown in FIG. 2 (bottom), a good correlation was observed (R^2=0.943) between the sample measurements and the spiked samples for the detection of pyocyanin once hydrolyzed.

Some results are limits rather than exact numbers.

For `O=C(O)c1ccc2nc3ccccc3nc2c1` [Phenazine-2-carboxylic acid], in the data set on As230 antiserum, the “% RC (cross-reactivity)” value is reported as under 0.1% and the concentration for half-maximal inhibition (IC50) (usually the point on the concentration scale where inhibition reaches its midpoint) was over 800 nM.

Consider `COS(=O)(=O)[O-].C[n+]1c2ccccc2nc2ccccc21` [Methyl 5-methylphenazine sulfate], for which, in the data set on As230 antiserum, the “% RC (cross-reactivity)” value worked out at 0.4% and the IC50 was determined as 140 nM.

Consider `Cn1c2cccc(=O)c-2nc2ccccc21` [Pyocyanin, pyocyanin], for which, in the data set on As230 antiserum, the “% RC (cross-reactivity)” value is on record as under 0.1% and the 50% inhibitory concentration (IC50) was over 800 nM. Besides, the “% RC (cross-reactivity)” value in the data set with As230 antiserum (listed as pyocyanin) is “less than 0.1%”. Also, the “conversion of pyocyanin in 1-hydroxyphenazine (hydrolysis of the methyl group)” value in data set [1] is “quantitative”.

As for `c1ccc2nc3ccccc3nc2c1` [Phenazine], in the data set on As230 antiserum, the “% RC (cross-reactivity)” value was under 0.1% and the half-inhibitory concentration (IC50) is over 800 nM.

On to `Oc1cccc2nc3ccccc3nc12` [1-hydroxyphenazine], for which, in the data set with As230 antiserum, the “% RC (cross-reactivity)” value was determined as 100% and the IC50 was 0.62 nM.
